Data reported in ChEMBL document CHEMBL3286363, “Benzo[d]isothiazole 1,1-dioxide derivatives as dual functional inhibitors of 5-lipoxygenase and microsomal prostaglandin E(2) synthase-1” (Bioorg Med Chem Lett, 2014).
pIC50: −log10 of the molar value.

Legend:
[1] = target: T1, Polyunsaturated fatty acid 5-lipoxygenase (Homo sapiens, UniProt P09917); test: Inhibition of human 5-LOX using arachidonic acid as substrate measured as H2DCFDA conversion to 2',7'-dichlorofluorescein preincubated for 10 mins by fluorescence spectrophotometric analysis
T1 sequence (P09917 whole entry): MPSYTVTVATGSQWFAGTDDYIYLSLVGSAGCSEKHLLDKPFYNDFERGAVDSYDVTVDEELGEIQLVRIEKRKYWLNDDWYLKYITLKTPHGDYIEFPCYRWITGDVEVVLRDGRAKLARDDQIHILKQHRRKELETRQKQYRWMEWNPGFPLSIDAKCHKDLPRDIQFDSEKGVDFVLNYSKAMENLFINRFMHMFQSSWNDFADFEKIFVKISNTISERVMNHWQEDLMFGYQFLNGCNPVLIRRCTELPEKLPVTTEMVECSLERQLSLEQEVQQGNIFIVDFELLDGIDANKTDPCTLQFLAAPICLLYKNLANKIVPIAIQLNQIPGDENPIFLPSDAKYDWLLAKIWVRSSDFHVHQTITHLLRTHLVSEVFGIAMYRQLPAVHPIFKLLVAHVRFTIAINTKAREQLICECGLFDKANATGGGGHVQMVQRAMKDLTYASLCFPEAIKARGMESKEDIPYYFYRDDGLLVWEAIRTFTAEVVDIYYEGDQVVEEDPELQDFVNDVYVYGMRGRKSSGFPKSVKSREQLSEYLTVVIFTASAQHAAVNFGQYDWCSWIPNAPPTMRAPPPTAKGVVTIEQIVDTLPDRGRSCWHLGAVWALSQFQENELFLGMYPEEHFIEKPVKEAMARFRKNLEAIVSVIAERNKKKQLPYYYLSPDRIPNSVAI

Prostaglandin E synthase = target: T2, Prostaglandin E synthase (Homo sapiens, UniProt O14684); test: Inhibition of microsomal PGES-1 (unknown origin) assessed as PGH2 conversion to PGE2 after 1 min by enzyme immunoassay
T2 sequence (O14684 whole entry): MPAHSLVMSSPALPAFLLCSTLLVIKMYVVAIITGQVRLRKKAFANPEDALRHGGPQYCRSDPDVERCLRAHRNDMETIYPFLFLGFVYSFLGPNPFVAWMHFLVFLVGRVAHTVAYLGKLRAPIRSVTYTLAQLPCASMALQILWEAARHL

| SMILES | pIC50 [1] | pIC50 (Prostaglandin E synthase) |
| --- | --- | --- |
| O=[N+]([O-])c1ccc2c(c1)S(=O)(=O)N=C2Nc1cccc2ccccc12 | 6.22 | 5.68 |
| O=[N+]([O-])c1ccc2c(c1)S(=O)(=O)N=C2Nc1cccc2c1OCO2 | 4.83 | < 4.30 |
| O=[N+]([O-])c1ccc2c(c1)S(=O)(=O)N=C2Nc1cccc(Br)c1 | 5.47 | 5.14 |
| COc1ccc(NC2=NS(=O)(=O)c3cc([N+](=O)[O-])ccc32)cc1OC | 4.63 | < 4.30 |
| O=[N+]([O-])c1ccc2c(c1)S(=O)(=O)N=C2NCc1cccc(Br)c1 | < 4.30 | < 4.30 |
| Cc1ccccc1NC1=NS(=O)(=O)c2cc([N+](=O)[O-])ccc21 | < 4.30 | < 4.30 |
| COc1ccc(NC2=NS(=O)(=O)c3cc([N+](=O)[O-])ccc32)cc1 | 4.91 | 4.77 |
| CC(C)c1cccc(NC2=NS(=O)(=O)c3cc([N+](=O)[O-])ccc32)c1 | 6.60 | < 4.30 |
| O=[N+]([O-])c1ccc2c(c1)S(=O)(=O)N=C2Nc1cccc(Cl)c1 | < 4.30 | 5.24 |
| O=[N+]([O-])c1ccc2c(c1)S(=O)(=O)N=C2Nc1cccc2ncccc12 | < 4.30 | 6.82 |
| O=[N+]([O-])c1ccc2c(c1)S(=O)(=O)N=C2Nc1cccc2c(Br)cccc12 | < 4.30 | < 4.30 |
| O=[N+]([O-])c1ccc2c(c1)S(=O)(=O)N=C2Nc1ccccc1 | 5.07 | 4.63 |
| CC(C)(C)c1cccc(NC2=NS(=O)(=O)c3cc([N+](=O)[O-])ccc32)c1 | 7.22 | < 4.30 |
| O=[N+]([O-])c1ccc2c(c1)S(=O)(=O)N=C2Nc1cccc(-c2ccccc2)c1 | 6.15 | < 4.30 |
| COc1cccc(NC2=NS(=O)(=O)c3cc([N+](=O)[O-])ccc32)c1 | 6.62 | 5.06 |
